Structures are written as SMILES.

The target of this test is Nav 1.7 (Homo sapiens (Human), UniProt Q15858). Put plainly: in-vitro Nav 1.7 PX (IC50). Type of test: cell-based. The conditions noted are these: in-vitro Nav 1.7 PX data.
Sequence of Nav 1.7 (Q15858 whole entry): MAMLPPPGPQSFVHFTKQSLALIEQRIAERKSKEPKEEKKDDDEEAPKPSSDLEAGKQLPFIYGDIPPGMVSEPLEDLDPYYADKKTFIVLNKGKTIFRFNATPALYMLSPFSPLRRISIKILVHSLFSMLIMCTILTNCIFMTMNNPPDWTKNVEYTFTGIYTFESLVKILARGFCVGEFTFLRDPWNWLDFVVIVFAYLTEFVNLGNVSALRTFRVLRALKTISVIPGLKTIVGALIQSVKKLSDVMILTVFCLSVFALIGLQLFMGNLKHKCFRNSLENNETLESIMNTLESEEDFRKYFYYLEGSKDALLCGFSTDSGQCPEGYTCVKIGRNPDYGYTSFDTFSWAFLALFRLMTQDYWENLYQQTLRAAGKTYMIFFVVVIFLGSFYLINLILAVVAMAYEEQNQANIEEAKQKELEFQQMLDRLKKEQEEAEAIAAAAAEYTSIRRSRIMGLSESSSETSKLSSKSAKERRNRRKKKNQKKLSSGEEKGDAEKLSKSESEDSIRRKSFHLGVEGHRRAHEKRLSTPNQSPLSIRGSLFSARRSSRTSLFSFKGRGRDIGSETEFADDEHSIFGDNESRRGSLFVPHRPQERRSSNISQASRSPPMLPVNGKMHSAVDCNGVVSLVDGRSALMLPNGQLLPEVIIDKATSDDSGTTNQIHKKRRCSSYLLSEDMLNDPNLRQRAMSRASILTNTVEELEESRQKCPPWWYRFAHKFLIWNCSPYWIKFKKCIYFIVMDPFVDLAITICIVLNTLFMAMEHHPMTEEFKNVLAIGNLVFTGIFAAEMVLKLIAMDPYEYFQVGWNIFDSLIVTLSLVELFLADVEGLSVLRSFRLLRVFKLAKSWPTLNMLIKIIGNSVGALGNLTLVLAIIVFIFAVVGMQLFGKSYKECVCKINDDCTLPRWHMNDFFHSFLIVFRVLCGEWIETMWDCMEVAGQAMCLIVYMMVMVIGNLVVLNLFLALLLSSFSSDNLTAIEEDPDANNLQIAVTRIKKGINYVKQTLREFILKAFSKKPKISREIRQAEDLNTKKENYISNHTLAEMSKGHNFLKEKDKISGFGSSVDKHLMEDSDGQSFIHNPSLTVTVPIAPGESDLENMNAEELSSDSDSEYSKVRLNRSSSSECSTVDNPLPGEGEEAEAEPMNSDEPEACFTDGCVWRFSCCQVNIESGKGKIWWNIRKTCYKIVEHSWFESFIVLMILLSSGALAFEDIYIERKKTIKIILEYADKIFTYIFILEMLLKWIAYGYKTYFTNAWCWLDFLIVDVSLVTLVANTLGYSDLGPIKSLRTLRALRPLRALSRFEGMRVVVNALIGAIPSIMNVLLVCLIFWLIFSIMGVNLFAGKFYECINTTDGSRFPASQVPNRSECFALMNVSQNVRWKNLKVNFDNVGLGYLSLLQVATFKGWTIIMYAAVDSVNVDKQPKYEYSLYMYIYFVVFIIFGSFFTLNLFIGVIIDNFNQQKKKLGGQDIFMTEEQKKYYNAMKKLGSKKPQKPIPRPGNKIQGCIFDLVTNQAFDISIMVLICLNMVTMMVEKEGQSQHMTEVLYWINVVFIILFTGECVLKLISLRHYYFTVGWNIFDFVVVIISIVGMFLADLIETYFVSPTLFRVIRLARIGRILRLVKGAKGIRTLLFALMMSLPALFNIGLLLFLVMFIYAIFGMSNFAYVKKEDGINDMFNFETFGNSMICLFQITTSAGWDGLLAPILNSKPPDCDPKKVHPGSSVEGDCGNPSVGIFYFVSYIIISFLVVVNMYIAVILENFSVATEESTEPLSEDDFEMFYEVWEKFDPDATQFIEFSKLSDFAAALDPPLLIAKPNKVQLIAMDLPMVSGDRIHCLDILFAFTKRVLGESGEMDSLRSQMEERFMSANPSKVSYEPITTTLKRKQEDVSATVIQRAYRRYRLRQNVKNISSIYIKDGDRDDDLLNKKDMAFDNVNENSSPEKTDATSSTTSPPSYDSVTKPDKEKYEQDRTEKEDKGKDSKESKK
As to `COc1ccc(-c2ccc(OC)c(-n3c(=O)ccc4cc(S(=O)(=O)Nc5ccon5)ccc43)c2)cc1Cl` [Example 884, 1-(3′-chloro-4,4′-dimethoxy-3-biphenylyl)-N-3-isoxazolyl-2-oxo-1,2-dihydro-6-quinolinesulfonamide], the half-inhibitory concentration (IC50) was 0.035 µM.

With `COc1ccc(-c2ccc(C)c(Cl)c2)cc1-n1c(=O)ccc2cc(S(=O)(=O)Nc3ccon3)ccc21` [Example 885, 1-(3′-chloro-4-methoxy-4′-methyl-3-biphenylyl)-N-3-isoxazolyl-2-oxo-1,2-dihydro-6-quinolinesulfonamide], inhibition was half-maximal at 0.012 µM (IC50). As for `COc1ccc(-c2cccc(Cl)c2F)cc1-n1c(=O)ccc2cc(S(=O)(=O)Nc3ccon3)ccc21` [Example 887, 1-(3′-chloro-2′-fluoro-4-methoxy-3-biphenylyl)-N-3-isoxazolyl-2-oxo-1,2-dihydro-6-quinolinesulfonamide], the figure is 0.03 µM; as for `COc1cc(-c2ccc(OC)c(-n3c(=O)ccc4cc(S(=O)(=O)Nc5ccon5)ccc43)c2)ccc1F` [Example 889, 1-(4′-fluoro-3′,4-dimethoxy-3-biphenylyl)-N-3-isoxazolyl-2-oxo-1,2-dihydro-6-quinolinesulfonamide], 0.184 µM. As for `COc1cc(-c2ccc(Cl)c(C#N)c2)c(F)cc1-n1c(=O)ccc2cc(S(=O)(=O)Nc3ncco3)ccc21` [Example 890, 1-(4′-chloro-3′-cyano-2-fluoro-5-methoxy-4-biphenylyl)-N-1,3-oxazol-2-yl-2-oxo-1,2-dihydro-6-quinolinesulfonamide], the figure is 0.084 µM. In turn, `COc1ccc(-c2cccc(Cl)c2C)cc1-n1c(=O)ccc2cc(S(=O)(=O)Nc3ccon3)ccc21` [Example 891, 1-(3′-chloro-4-methoxy-2′-methyl-3-biphenylyl)-N-3-isoxazolyl-2-oxo-1,2-dihydro-6-quinolinesulfonamide] displayed a half-maximal inhibitory concentration (IC50) of 0.02 µM.

Compound `COc1cc(-c2ccc(Cl)c(C#N)c2)c(F)cc1-n1c(=O)ccc2cc(S(=O)(=O)Nc3ccnc(C)n3)ccc21` [Example 892, 1-(4′-chloro-3′-cyano-2-fluoro-5-methoxy-4-biphenylyl)-N-(2-methyl-4-pyrimidinyl)-2-oxo-1,2-dihydro-6-quinolinesulfonamide] gave an IC50 of 0.051 µM. The result for `COc1cc(-c2ccc(Cl)c(C#N)c2)c(F)cc1-n1c(=O)ccc2cc(S(=O)(=O)Nc3ncc(F)cn3)ccc21` [Example 893, 1-(4′-chloro-3′-cyano-2-fluoro-5-methoxy-4-biphenylyl)-N-(5-fluoro-2-pyrimidinyl)-2-oxo-1,2-dihydro-6-quinolinesulfonamide] reads 0.013 µM. As for `COc1cc(-c2ccc(F)c(F)c2)ccc1-n1c(=O)ccc2cc(S(=O)(=O)Nc3ncco3)ccc21` [Example 894, 1-(3′,4′-difluoro-3-methoxy-4-biphenylyl)-N-1,3-oxazol-2-yl-2-oxo-1,2-dihydro-6-quinolinesulfonamide], the figure is 0.083 µM.

`COc1ccc(-c2cccc(Cl)c2C)cc1-n1c(=O)ccc2cc(S(=O)(=O)Nc3ccon3)ccc21` [Example 895, 1-(3′-chloro-4-methoxy-2′-methyl-3-biphenylyl)-N-3-isoxazolyl-2-oxo-1,2-dihydro-6-quinolinesulfonamide] yielded a concentration for half-maximal inhibition (IC50) of 1.84 µM. As for `COc1cc(-c2ccc(F)c(F)c2)ccc1-n1c(=O)ccc2cc(S(=O)(=O)Nc3cccnn3)ccc21` [Example 896, 1-(3′,4′-difluoro-3-methoxy-4-biphenylyl)-2-oxo-N-3-pyridazinyl-1,2-dihydro-6-quinolinesulfonamide], the figure is 0.047 µM. As for `COc1cc(-c2ccc(F)c(F)c2)ccc1-n1c(=O)ccc2cc(S(=O)(=O)Nc3ncccn3)ccc21` [Example 897, 1-(3′,4′-difluoro-3-methoxy-4-biphenylyl)-2-oxo-N-2-pyrimidinyl-1,2-dihydro-6-quinolinesulfonamide], the figure is 0.1 µM; as for `COc1cc(-c2ccc(Cl)c(C#N)c2)c(F)cc1-n1c(=O)ccc2cc(S(=O)(=O)Nc3cc(C)ncn3)ccc21` [Example 898, 1-(4′-chloro-3′-cyano-2-fluoro-5-methoxy-4-biphenylyl)-N-(6-methyl-4-pyrimidinyl)-2-oxo-1,2-dihydro-6-quinolinesulfonamide], 0.044 µM; as for `COc1cc(-c2ccc(F)c(F)c2)ccc1-n1c(=O)ccc2cc(S(=O)(=O)Nc3cc(C)ncn3)ccc21` [Example 899, 1-(3′,4′-difluoro-3-methoxy-4-biphenylyl)-N-(6-methyl-4-pyrimidinyl)-2-oxo-1,2-dihydro-6-quinolinesulfonamide], 0.107 µM. The result for `COc1cc(-c2ccc(F)c(F)c2)ccc1-n1c(=O)ccc2cc(S(=O)(=O)Nc3ccnc(C)n3)ccc21` [Example 900, 1-(3′,4′-difluoro-3-methoxy-4-biphenylyl)-N-(2-methyl-4-pyrimidinyl)-2-oxo-1,2-dihydro-6-quinolinesulfonamide] reads 0.285 µM; that for `COc1ccc(-c2cc(F)cc(Cl)c2)cc1-n1c(=O)ccc2cc(S(=O)(=O)Nc3cccnn3)ccc21` [Example 902, 1-(3′-chloro-5′-fluoro-4-methoxy-3-biphenylyl)-2-oxo-N-3-pyridazinyl-1,2-dihydro-6-quinolinesulfonamide], 0.077 µM; that for `COc1cc(-c2cccc(C(F)(F)F)c2)ccc1-n1c(=O)ccc2cc(S(=O)(=O)Nc3cnccn3)ccc21` [Example 915, 1-(3-methoxy-3′-(trifluoromethyl)-4-biphenylyl)-2-oxo-N-2-pyrazinyl-1,2-dihydro-6-quinolinesulfonamide], 0.031 µM. `COc1cc(-c2cccc(C(F)(F)F)c2)ccc1-n1c(=O)ccc2cc(S(=O)(=O)Nc3ncco3)ccc21` [Example 916, 1-(3-methoxy-3′-(trifluoromethyl)-4-biphenylyl)-N-1,3-oxazol-2-yl-2-oxo-1,2-dihydro-6-quinolinesulfonamide] had an IC50 of 0.05 µM. Compound `COc1cc(-c2cccc(C(F)(F)F)c2)ccc1-n1c(=O)ccc2cc(S(=O)(=O)Nc3ncc(F)cn3)ccc21` [Example 917, N-(5-fluoro-2-pyrimidinyl)-1-(3-methoxy-3′-(trifluoromethyl)-4-biphenylyl)-2-oxo-1,2-dihydro-6-quinolinesulfonamide] registered a half-inhibitory concentration (IC50) of 0.031 µM. As for `COc1cc(-c2cccc(C(F)(F)F)c2)ccc1-n1c(=O)ccc2cc(S(=O)(=O)Nc3ccc(F)cn3)ccc21` [Example 918, N-(5-fluoro-2-pyridinyl)-1-(3-methoxy-3′-(trifluoromethyl)-4-biphenylyl)-2-oxo-1,2-dihydro-6-quinolinesulfonamide], the figure is 0.093 µM; as for `COc1cc(-c2cccc(C(F)(F)F)c2)ccc1-n1c(=O)ccc2cc(S(=O)(=O)Nc3ncon3)ccc21` [Example 919, 1-(3-methoxy-3′-(trifluoromethyl)-4-biphenylyl)-N-1,2,4-oxadiazol-3-yl-2-oxo-1,2-dihydro-6-quinolinesulfonamide], 0.022 µM. As for `COc1cc(-c2cc(F)cc(Cl)c2)c(F)cc1-n1c(=O)ccc2cc(S(=O)(=O)Nc3ccc(F)cn3)ccc21` [Example 920, 1-(3′-chloro-2,5′-difluoro-5-methoxy-4-biphenylyl)-N-(5-fluoro-2-pyridinyl)-2-oxo-1,2-dihydro-6-quinolinesulfonamide], the figure is 0.06 µM.

Usually IC50 stands for the point on the concentration scale where inhibition reaches its midpoint. High values mean weaker potency in that assay, low ones greater potency in that assay.

The values above are taken from US9212182B2, “Bicyclic sulfonamide compounds as sodium channel inhibitors” (AMGEN INC., priority 2013, dated 2015).
